Results: patent publication US5393751A, “Tricyclic carbapenem compounds” (Takeda Chemical Industries, Ltd., priority 1989, dated 1995)

Experiments:
Assay in all cases: MIC by agar dilution method
Format in all cases: cell-based
E. coli NIHJ O-111 = details: Escherichia coli, NIHJO111, 24 h, 10^8 CFU/ml, 37° C. overnight
Description: (§1) The minimal inhibitory concentrations [MIC (μg/ml)] of a representative compound of the invention were determined by the following method.
(§2) Method for MIC determination
(§3) The MIC values of the test compound were determined by the agar dilution method. Thus, 1.0 ml aliquots of serial aqueous dilutions of the test compound were put in petri dishes and 9.0 ml aliquots of Trypticase Soy Agar were added and mixed. Those agar plates were respectively smeared with a suspension (about 10^8 CFU/ml) of the test organism and incubated at 37° C. overnight.

S. pyogenes S-8 = details: Streptococcus pyogenes, S8, 24 h, 10^8 CFU/ml, 37° C. overnight
Description: as §1, §2, §3

M. morganii IFO 3168 = details: Morganella morganii, IFO3168, 24 h, 10^8 CFU/ml, 37° C. overnight
Description: as §1, §2, §3

E. coli NIHJ T-7 = details: Escherichia coli, NIHJT7, 24 h, 10^8 CFU/ml, 37° C. overnight
Description: as §1, §2, §3

C. freundii IFO 12681 = details: Citrobacter freundii, IFO12681, 24 h, 10^8 CFU/ml, 37° C. overnight
Description: as §1, §2, §3

E. cloacae IFO 12937 = details: Enterobacter cloacae, IFO12937, 24 h, 10^8 CFU/ml, 37° C. overnight
Description: as §1, §2, §3

K. oxytoca TN 1711 = details: Klebsiella oxytoca, TN1711, 24 h, 10^8 CFU/ml, 37° C. overnight
Description: as §1, §2, §3

E. coli NIHJ JC-2 = details: Escherichia coli, NIHJJC2, 24 h, 10^8 CFU/ml, 37° C. overnight
Description: as §1, §2, §3

E. cloacae TN 583 = details: Enterobacter cloacae, TN583, 24 h, 10^8 CFU/ml, 37° C. overnight
Description: as §1, §2, §3

C. diphtheriae Tronto = details: Corynebacterium diphtheriae, 24 h
Description: as §1, §2, §3

S. aureus 308A-1 = details: Staphylococcus aureus, 308A1, 24 h, 10^8 CFU/ml, 37° C. overnight
Description: as §1, §2, §3

S. aureus FDA 209P = details: Staphylococcus aureus, FDA209P, 24 h, 10^8 CFU/ml, 37° C. overnight
Description: as §1, §2, §3

K. pneumoniae DT = details: Klebsiella pneumoniae, 24 h, 10^8 CFU/ml, 37° C. overnight
Description: as §1, §2, §3

S. aureus 1840 = details: Staphylococcus aureus, 24 h, 10^8 CFU/ml, 37° C. overnight
Description: as §1, §2, §3

C. freundii TN 474 = details: Citrobacter freundii, TN474, 24 h, 10^8 CFU/ml, 37° C. overnight
Description: as §1, §2, §3

S. mitis America = details: Streptococcus mitis, 24 h, 10^8 CFU/ml, 37° C. overnight
Description: as §1, §2, §3

S. pyogenes E-14 = details: Streptococcus pyogenes, E14, 24 h, 10^8 CFU/ml, 37° C. overnight
Description: as §1, §2, §3

P. mirabilis IFO 3849 = details: Proteus mirabilis, IFO3849, 24 h, 10^8 CFU/ml, 37° C. overnight
Description: as §1, §2, §3

S. marcescens IFO 12648 = details: Serratia marcescens, IFO12648, 24 h, 10^8 CFU/ml, 37° C. overnight
Description: as §1, §2, §3

P. vulgaris IFO 3988 = details: Proteus vulgaris, IFO3988, 24 h, 10^8 CFU/ml, 37° C. overnight
Description: as §1, §2, §3

S. pneumoniae Type I = details: Streptococcus pneumoniae, 24 h, 10^8 CFU/ml, 37° C. overnight
Description: as §1, §2, §3

**Q.** With C[C@@H](O)[C@H]1C(=O)N2C(C(=O)[O-])=C3SCCCC3[C@H]12.[Na+] (mixture of isomers) [Example 3, Sodium (5S,6S,7RS)-5-[(R)-1-hydroxyethyl]-4-oxo-3-aza-11-thiatricyclo[5.4.0.0^3,6]undec-1-ene-2-carboxylate] as the compound, how does the MIC (E. coli NIHJ O-111) read?
**A.** 0.2 µg/mL

**Q.** What about the MIC (S. pyogenes S-8) of the same compound?
**A.** 0.2 µg/mL

**Q.** What about the MIC (M. morganii IFO 3168) of the same compound?
**A.** 3.13 µg/mL

**Q.** And the MIC (E. coli NIHJ T-7)?
**A.** 0.2 µg/mL

**Q.** What about the MIC (C. freundii IFO 12681) of the same compound?
**A.** 0.39 µg/mL

**Q.** What about the MIC (E. cloacae IFO 12937) of the same compound?
**A.** 0.78 µg/mL

**Q.** What about the MIC (K. oxytoca TN 1711) of the same compound?
**A.** 0.39 µg/mL

**Q.** What about the MIC (E. coli NIHJ JC-2) of the same compound?
**A.** 0.2 µg/mL

**Q.** What about the MIC (E. cloacae TN 583) of the same compound?
**A.** 0.78 µg/mL

**Q.** What about the MIC (C. diphtheriae Tronto) of the same compound?
**A.** < 0.1 µg/mL

**Q.** What about the MIC (S. aureus 308A-1) of the same compound?
**A.** 0.78 µg/mL

**Q.** And the MIC (S. aureus FDA 209P)?
**A.** 0.78 µg/mL

**Q.** And the MIC (K. pneumoniae DT)?
**A.** 0.39 µg/mL

**Q.** What about the MIC (S. aureus 1840) of the same compound?
**A.** 1.56 µg/mL

**Q.** And the MIC (C. freundii TN 474)?
**A.** 1.56 µg/mL

**Q.** What about the MIC (S. mitis America) of the same compound?
**A.** 0.78 µg/mL

**Q.** What about the MIC (S. pyogenes E-14) of the same compound?
**A.** 0.78 µg/mL

**Q.** And the MIC (P. mirabilis IFO 3849)?
**A.** 1.56 µg/mL

**Q.** What about the MIC (S. marcescens IFO 12648) of the same compound?
**A.** 1.56 µg/mL

**Q.** And the MIC (P. vulgaris IFO 3988)?
**A.** 3.13 µg/mL

**Q.** And the MIC (S. pneumoniae Type I)?
**A.** 0.39 µg/mL
